Assay results published in ChEMBL document CHEMBL1201862, “PubChem BioAssay data set” (2004).
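Method: 48-hour compound exposure of cells in 96-well plates, five concentrations, linear interpolation of endpoints. GI50: concentration for 50% inhibition of growth.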 The source made the active and inactive calls. Cut-off read from the data, not from the text of the source: active = GI50 up to about 1.1 µM and inactive = higher.

Key:
Assay in all cases: inhibition of tumour cell growth, NCI panel, 48 h
[1] = test system: OVCAR-4
[2] = test system: HCT-15
[3] = test system: SF-295
[4] = test system: HL-60
[5] = test system: SF-268
[6] = test system: CAKI-1
[7] = test system: COLO 205
[8] = test system: RPMI-8226
[9] = test system: A549
[10] = test system: NCI-H460
[11] = test system: NCI-H23
[12] = test system: HCT-116
[13] = test system: EKVX
[14] = test system: UACC-62
[15] = test system: OVCAR-8
[16] = test system: SK-MEL-5
[17] = test system: U-251
[18] = test system: SNB-19
[19] = test system: MOLT-4
[20] = test system: SF-539

SMILES	GI50 [1]	GI50 [2] [µM]	GI50 [3]	GI50 [4]	GI50 [5]	GI50 [6]	GI50 [7]	GI50 [8]	GI50 [9]	GI50 [10]	GI50 [11]	GI50 [12]	GI50 [13]	GI50 [14]	GI50 [15]	GI50 [16]	GI50 [17]	GI50 [18]	GI50 [19]	GI50 [20]
O=C(CSc1nc2ccccc2c2ccccc12)c1ccccc1	> 100 µM (inactive)	> 100	> 100 µM (inactive)	> 100 µM (inactive)	> 100 µM (inactive)	> 100 µM (inactive)	> 100 µM (inactive)	> 100 µM (inactive)	> 100 µM (inactive)	> 100 µM (inactive)	> 100 µM (inactive)	> 100 µM (inactive)	> 100 µM (inactive)	> 100 µM (inactive)	> 100 µM (inactive)	> 100 µM (inactive)	> 100 µM (inactive)	> 100 µM (inactive)	> 100 µM (inactive)	> 100 µM (inactive)
O=C1C[C@H](Sc2ccccc2)C2(OCCO2)[C@H]2ON3CCC[C@@H]3[C@@H]12	2.57 µM (inactive)	0.59	3.79 µM (inactive)	1.06 µM (active)	1.65 µM (inactive)	2.29 µM (inactive)	1.66 µM (inactive)	0.306 µM (active)	2.89 µM (inactive)	2.92 µM (inactive)	1.91 µM (inactive)	0.841 µM (active)	2.53 µM (inactive)	1.73 µM (inactive)	0.918 µM (active)	7.23 µM (inactive)	1.88 µM (inactive)	5.18 µM (inactive)	0.333 µM (active)	1.2 µM (inactive)
CCCSc1ccc2[nH]c(N3C(=O)/C(=C/c4cc(OC)c(OC)c(OC)c4)N=C3c3ccccc3)cc2c1	14.5 µM (inactive)	12.2	1.25 µM (inactive)	5.66 µM (inactive)	11 µM (inactive)	11.9 µM (inactive)	8.43 µM (inactive)	9.18 µM (inactive)	0.553 µM (active)	12.5 µM (inactive)	10.9 µM (inactive)	16.5 µM (inactive)	5.74 µM (inactive)	8.61 µM (inactive)	12.6 µM (inactive)	7.53 µM (inactive)	17.8 µM (inactive)	0.681 µM (active)	10.9 µM (inactive)	1.72 µM (inactive)
N#CC(NC12CC3CC(CC(C3)C1)C2)c1ccccc1C(F)(F)F (centres undefined)	> 100 µM (inactive)	> 100	–	> 100 µM (inactive)	> 100 µM (inactive)	> 100 µM (inactive)	> 100 µM (inactive)	> 100 µM (inactive)	> 100 µM (inactive)	> 100 µM (inactive)	> 100 µM (inactive)	> 100 µM (inactive)	> 100 µM (inactive)	–	> 100 µM (inactive)	> 100 µM (inactive)	–	> 100 µM (inactive)	> 100 µM (inactive)	> 100 µM (inactive)
COc1ccc(CNc2nc3cc(C(F)(F)F)ccc3nc2C)cc1OC	12 µM (inactive)	34.8	34.4 µM (inactive)	19.9 µM (inactive)	33.3 µM (inactive)	33 µM (inactive)	32.9 µM (inactive)	27.1 µM (inactive)	32.1 µM (inactive)	30.1 µM (inactive)	35.7 µM (inactive)	26.2 µM (inactive)	20.2 µM (inactive)	31.6 µM (inactive)	30.3 µM (inactive)	17.3 µM (inactive)	37 µM (inactive)	41.6 µM (inactive)	17.3 µM (inactive)	29.2 µM (inactive)
O=c1ccc2ccc(S)cc2o1	> 100 µM (inactive)	> 100	> 100 µM (inactive)	> 100 µM (inactive)	> 100 µM (inactive)	> 100 µM (inactive)	> 100 µM (inactive)	99.8 µM (inactive)	> 100 µM (inactive)	> 100 µM (inactive)	> 100 µM (inactive)	> 100 µM (inactive)	> 100 µM (inactive)	> 100 µM (inactive)	> 100 µM (inactive)	> 100 µM (inactive)	> 100 µM (inactive)	> 100 µM (inactive)	42 µM (inactive)	> 100 µM (inactive)
Cn1cc(C(=O)/C(Cl)=C(\Cl)C(=O)O)c2ccccc21	> 100 µM (inactive)	> 100	> 100 µM (inactive)	> 100 µM (inactive)	–	> 100 µM (inactive)	–	> 100 µM (inactive)	> 100 µM (inactive)	> 100 µM (inactive)	> 100 µM (inactive)	> 100 µM (inactive)	> 100 µM (inactive)	> 100 µM (inactive)	> 100 µM (inactive)	> 100 µM (inactive)	> 100 µM (inactive)	–	> 100 µM (inactive)	> 100 µM (inactive)
O=C(c1ccc(Cl)cc1)N1CCN=C1c1cc2ccccc2c2ccccc12	14.2 µM (inactive)	16.6	16.6 µM (inactive)	21.8 µM (inactive)	16.7 µM (inactive)	15.7 µM (inactive)	16 µM (inactive)	19.8 µM (inactive)	15.9 µM (inactive)	11.5 µM (inactive)	17.6 µM (inactive)	14.9 µM (inactive)	13.8 µM (inactive)	14.5 µM (inactive)	17.3 µM (inactive)	14.8 µM (inactive)	16.3 µM (inactive)	16.4 µM (inactive)	33.7 µM (inactive)	15.7 µM (inactive)
CC(C)OP(=O)(OC(C)C)/C(=N/Nc1ccc([N+](=O)[O-])cc1)NCCO	> 100 µM (inactive)	72.8	–	42.7 µM (inactive)	> 100 µM (inactive)	> 100 µM (inactive)	> 100 µM (inactive)	> 100 µM (inactive)	74.8 µM (inactive)	> 100 µM (inactive)	> 100 µM (inactive)	> 100 µM (inactive)	> 100 µM (inactive)	26.2 µM (inactive)	> 100 µM (inactive)	> 100 µM (inactive)	> 100 µM (inactive)	> 100 µM (inactive)	48.9 µM (inactive)	> 100 µM (inactive)
COc1cccc(N/C(C)=C2/CCOC2=O)c1	> 10 µM (inactive)	5.08	> 10 µM (inactive)	> 10 µM (inactive)	> 10 µM (inactive)	> 10 µM (inactive)	> 10 µM (inactive)	> 10 µM (inactive)	> 10 µM (inactive)	> 10 µM (inactive)	> 10 µM (inactive)	> 10 µM (inactive)	> 10 µM (inactive)	> 10 µM (inactive)	> 10 µM (inactive)	> 10 µM (inactive)	> 10 µM (inactive)	> 10 µM (inactive)	> 10 µM (inactive)	> 10 µM (inactive)
O=C(CCl)NC(Cc1ccc(F)cc1)C(=O)O (centres undefined)	> 100 µM (inactive)	> 100	> 100 µM (inactive)	> 100 µM (inactive)	> 100 µM (inactive)	> 100 µM (inactive)	> 100 µM (inactive)	> 100 µM (inactive)	> 100 µM (inactive)	> 100 µM (inactive)	> 100 µM (inactive)	> 100 µM (inactive)	> 46 µM (inactive)	> 100 µM (inactive)	> 100 µM (inactive)	> 100 µM (inactive)	> 100 µM (inactive)	> 100 µM (inactive)	> 100 µM (inactive)	> 100 µM (inactive)
NC1C=NNC1=O (centres undefined)	> 100 µM (inactive)	> 100	> 100 µM (inactive)	> 100 µM (inactive)	> 100 µM (inactive)	> 100 µM (inactive)	> 100 µM (inactive)	> 100 µM (inactive)	> 100 µM (inactive)	–	> 100 µM (inactive)	–	> 100 µM (inactive)	> 100 µM (inactive)	> 100 µM (inactive)	> 100 µM (inactive)	> 100 µM (inactive)	> 100 µM (inactive)	> 100 µM (inactive)	> 100 µM (inactive)
O=S1(=O)CS(=O)(=O)OCCCO1	> 100 µM (inactive)	> 100	54.1 µM (inactive)	59 µM (inactive)	> 100 µM (inactive)	24.3 µM (inactive)	> 100 µM (inactive)	> 100 µM (inactive)	> 100 µM (inactive)	27.3 µM (inactive)	68.5 µM (inactive)	> 100 µM (inactive)	> 100 µM (inactive)	> 100 µM (inactive)	> 100 µM (inactive)	> 100 µM (inactive)	> 100 µM (inactive)	> 100 µM (inactive)	51.3 µM (inactive)	54.1 µM (inactive)
CC1(C)CCCC2(C)[C@@H]1CC[C@]13C[C@](C)(CC[C@@H]21)[C@@H]3CO (some centres undefined)	> 100 µM (inactive)	> 100	> 100 µM (inactive)	> 100 µM (inactive)	> 100 µM (inactive)	> 100 µM (inactive)	> 100 µM (inactive)	> 100 µM (inactive)	> 100 µM (inactive)	> 100 µM (inactive)	> 100 µM (inactive)	> 100 µM (inactive)	–	> 100 µM (inactive)	–	> 100 µM (inactive)	> 100 µM (inactive)	> 100 µM (inactive)	> 100 µM (inactive)	> 100 µM (inactive)
C#C[C@]1(O)[C@@H](CO)O[C@@H](n2ccc(=O)[nH]c2=O)[C@@H]1O	0.43 µM (active)	0.0186	0.191 µM (active)	0.356 µM (active)	0.116 µM (active)	< 0.0161 µM (active)	< 0.01 µM (active)	0.0101 µM (active)	0.0308 µM (active)	< 0.01 µM (active)	0.428 µM (active)	< 0.01 µM (active)	4.72 µM (inactive)	0.156 µM (active)	< 0.01 µM (active)	0.441 µM (active)	0.121 µM (active)	1.03 µM (active)	< 0.0177 µM (active)	0.0117 µM (active)
